Laboratory results published in publication PMC2853575, “Discovery of Selective Inhibitors Against EBNA1 via High Throughput In Silico Virtual Screening” (PLoS ONE, 2010).
Where “and” joins values, the source holds several entries; their conditions need not be identical. Equal entries are not always repeated. Where two headings read alike, the source gives them in different places.

How the values were obtained:
[1] = molecular target: T1, EBNA1 DNA binding domain (DBD) (Epstein-Barr virus, UniProt P03211); experiment: Fluorescence polarization (FP) assay of EBNA1-DNA binding
T1 construct: 246 nM EBNA1 DBD (aa 459–607); hexa-histidine (N); made in house; host or cells: E. coli
T1 sequence (P03211 459-607): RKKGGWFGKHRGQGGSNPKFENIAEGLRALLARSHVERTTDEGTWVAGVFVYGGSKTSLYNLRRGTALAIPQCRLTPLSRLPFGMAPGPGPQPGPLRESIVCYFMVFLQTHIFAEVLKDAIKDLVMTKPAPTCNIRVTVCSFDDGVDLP
Procedure: (§1) The EBNA1 DNA binding domain (DBD) (aa 454–607) with a hexa-histidine amino-terminal fusion protein was expressed in E. coli and purified over Ni-NTA agarose according to manufacturers recommendations (Qiagen). The protein was purified from four liters of E. coli to generate ∼20 mg of highly purified EBNA1 protein, estimated to be >90% pure. Purified protein was then dialyzed into a buffer consisting of 200 mM NaCl, 20 mM, Tris-HCl pH 7.4 and 20% Glycerol. Hexa-His tagged Zta was purified from E. coli to near homogeneity, similar to EBNA1 protein. Purified Zta was dialyzed into 500 mM NaCl, Tris-HCl pH 7.4 and 20% Glycerol.
(§2) A reaction mix containing 200 mM NaCl, 20 mM Tris-Cl pH 7.4, 1 mM DTT, 10 ug/mL BSA, 10 nM Cy5 5′ modified EBNA1 (Cy5-GGGTAGCATATGCTATCTagatagcatatgctaccc) or ZTA (Cy5-CACTGACTCATTaatgagtcagtg binding site) oligonucleotide hairpins (purchased from IDT) and 246 nM EBNA1 DBD (aa 459–607) or 300 nM ZTA full length purified recombinant protein was incubated for 20 minutes at room temperature prior to dispensing (BioTek MicroFlo Select) 30 uL to each well of a 384 well black opaque microtiter plate containing the test compounds. Test plates were centrifuged at 165×g prior to fluoresence polarizaration measurements in an Envision Xciter multilable plate reader (Perkin Elmer) using a Cy5 FP 620 excitation and Cy5 FP P/S-pol 688 emission filters.
(§3) To determine IC50s, an 11- point series of 2-fold dilutions in DMSO was performed in duplicate starting at an initial concentration of 50 mM using a Janus Verispan (Perkin Elmer) to create a master plate. From this master plate 0.5 uL was transfered to black opaque 384 well Optiplate (Perkin Elmer) using a Janus MDT (Perkin Elmer) or to microfuge tubes by hand. The plate or microfuge tubes were assayed using the FP and EMSA protocols described above. […] The data was calculated as percentage of EBNA1 binding activity and then plotted versus the log of the concentration of inhibitor. Using GraphPad Prism 5.0 software the plotted data was fit with a Hill-Slope dose-response curve to calculate the relative IC50.

Zta [2] = molecular target: T2, Zta (Epstein-Barr virus, UniProt P03206); experiment: Fluorescence polarization (FP) assay of Zta-DNA binding (specificity control); settings: for IC50: inhibitor 833 to 7 µM, 2-fold dilutions, 300 nM Zta, read-out: IC50, inhibition of Zta-DNA binding (FP, Fig. 3 panel B)
T2 construct: 300 nM ZTA full length purified recombinant protein; Hexa-His; made in house; host or cells: E. coli
T2 sequence (P03206 whole entry): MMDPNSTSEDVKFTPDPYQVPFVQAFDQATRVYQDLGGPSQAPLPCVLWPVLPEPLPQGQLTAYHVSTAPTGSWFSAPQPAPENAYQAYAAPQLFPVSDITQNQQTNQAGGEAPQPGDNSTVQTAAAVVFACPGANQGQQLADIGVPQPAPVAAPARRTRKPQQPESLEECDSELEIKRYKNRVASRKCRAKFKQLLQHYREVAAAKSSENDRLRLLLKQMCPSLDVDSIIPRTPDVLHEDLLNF
Procedure: as §1, §2, §3

Zta [3] = molecular target: T2, Zta; experiment: EMSA of Zta-DNA binding (specificity control)
Procedure: (§4) An EMSA reaction buffer was prepared containing 20% Glycerol, 200 mM NaCl, 20 mM Tris-Cl pH 7.4, 1 mM DTT, 10 ug/mL BSA, 10 nM Cy5 oligonucleotide probe and with or without 246 nM EBNA1 DBD or 300 nM Zta full length purified recombinant protein. This solution was incubated for 20 minutes at room temperature to ensure binding. 30 uL of this solution was dispensed to eppendorf tubes containing 0.5 uL of a test compound in DMSO and mixed. Samples were then loaded onto a 6% polyacrylamide gel in 1/2X Tris-Borate buffer and electrophoresed for 90 min at 170 V. The gel was then scanned for flouresence using at Typhoon Imager (GE Healthcare).
as §3

[4] = tested on: EBNA1 transcription activation of Cp; experiment: EBNA1 transcription activation assay (OriP-Cp-Luciferase reporter) in HEK293T cells; assay type: cell-based, Epstein-Barr virus; settings: 5 µM compound, 48 hrs, transfected HEK293T cells
Procedure: (§5) SC7, SC11, and SC19 were assayed for their ability to inhibit EBNA1 in two cell-based assays. Transcription activation of the EBV Cp promoter by EBNA1 is known to be essential for B-cell immortalization. We therefore assayed the effect of compounds to inhibit EBNA1 transcription activation of Cp using a luciferase reporter-based assay in transiently transfected HEK293T cells (Fig. 4). The luciferase reporter plasmid consisted of a ∼2 kb region of EBV containing both OriP and Cp fused upstream of the luciferase gene. Cotransfection of this plasmid with an EBNA1 expression plasmid produced a 4–5 fold increase in luciferase activity relative to control expression vector lacking EBNA1 (data not shown). Incubation of transfected cells with control vehicle DMSO had no effect on EBNA1 transcription activation. […] As a control for specificity, the same compounds were assayed for their inhibition of Zta transcription activation. Zta is a potent transcription activator of the EBV BHLF1 promoter. We therefore assayed these compounds for their effect on Zta transactivation of BHLF1 promoter fused to luciferase reporter gene.
(§6) HEK293T cells (purchased from ATCC) were seeded in 24-well plates at a density of 50,000 cells/well in DMEM media with 10% FBS. Following an 18 hr incubation at 37°C, cells were transfected using 2 µl of lipofectamine with 0.4 ug/well of a pCMV-FLAG-EBNA1, pCMV-FLAG-ZTA (N362) or a control pCMV-FLAG vector and 0.2 ug/well of either a Cp-Luciferase (EBNA1-reporter) or a HP-Luciferase (Zta-reporter) plasmid. All samples were cotransfected with 100 ng of Renilla expression vector as an internal control for transfection efficiency. After 6 hrs the transfection media was replaced and test compounds were added to achieve a final concentration of 5 uM. Cells were incubated at 37°C for 48 hrs and then harvested. Cells were lysed and prepared for analysis using the Promega Dual Reporter system and luminescence was measured using a Perkin Elmer Wallac Victor^2 1420 Multilabel reader.

[5] = tested on: Zta transactivation of BHLF1 promoter; experiment: Zta transcription activation assay (BHLF1-Luciferase reporter) in HEK293T cells; assay type: cell-based, Epstein-Barr virus; settings: for inhibition at 5 µM: human gammaherpesvirus 4, HEK-293T, 48 h, read-out: Inhibition of Zta transactivation
Procedure: as §5, §6

[6] = tested on: EBV genome copy number in the Raji Burkitt lymphoma cell line; experiment: Raji EBV genome copy number assay; assay type: cell-based, Epstein-Barr virus; settings: six days, Raji cells, real time PCR EBV DNA (DS) relative to actin
Procedure: To further evaluate the ability of these compounds to inhibit the EBNA1 function required for EBV genome replication, we assayed their effect on EBV genome copy number in the Raji Burkitt lymphoma cell line (Fig. 5). Raji cells typically contain ∼100 copies of the EBV genome per cell. […] Therefore, we assessed the effects of HU, SC7, SC11, and SC19 on EBV copy number in Raji cells. Cells were treated with 10 µM SC7, SC11, SC19 or with 100 µM HU for six days. The EBV genome copy number was determined by real time PCR for EBV DNA (DS) relative to cellular actin DNA.
Raji cells (purchased from ATCC) were grown at 5×10^6 cells/ml in RPMI media supplemented with 10% FBS and 10 mM Streptomycin and 10 mm Penicillin. Test compounds were added to achieve a final concentration of 10 uM. Cells were grown at 37°C for three days and then passaged 1∶10 into fresh media with the same concentration of drug. After a second 3-day incubation cells were harvested and the DNA was isolated using ChIP Lysis Buffer followed by sonication, phenol∶chloroform extraction, and ethanol precipitation. Relative EBV DNA copy number was quantified by real-time PCR with primers for cellular actin and the EBV dyad-symmetry region, as described previously.

[7] = molecular target: T1, EBNA1 DNA binding domain (DBD); experiment: EMSA of EBNA1-DNA binding; settings: Fig. 3
Procedure: as §4, §3

[8] = inhibitor 833 to 7 µM, 2-fold dilutions, 246 nM EBNA1 DBD, read-out: IC50, inhibition of EBNA1-DNA binding (FP, Fig. 3 panel A)
[9] = purified EBNA1 DBD, Cy5 DNA hairpin, read-out: IC50, inhibition of EBNA1-DNA binding in FP assay

Row | SMILES | IC50 [1, 8] | IC50 [1, 9] | Inhibition of Zta-DNA binding in FP assay (Zta [2]) | IC50 (Zta [2]) | Inhibition of Zta-DNA binding in EMSA (Zta [3]) | Inhibition of EBNA1 transcription activation [4] | inhibition at 5 µM [5] | Reduction in EBV genome copy number ([6]; 10 µM compound) | Inhibition of Zta transactivation ([5]; 5 µM compound, 48 hrs, transfected HEK293T cells) | Reduction in EBV genome copy number ([6]; 100 µM HU) | IC50, inhibition of EBNA1-DNA binding in FP assay ([1]; purified EBNA1 DBD, Cy5 DNA hairpin) | Inhibition of EBNA1-DNA binding in EMSA [7]
1 | CC(=O)Oc1ccc(N(C(C)=O)S(=O)(=O)c2ccc3ccccc3c2)cc1Br [SC7] | 23.7 µM | 20 to 100 µM and 23 µM | no significant inhibition | 300 µM | no significant inhibition | completely blocked | ~60% | no apparent effect |  |  |  | 
2 | N#CCc1ccc(NC(=O)c2cc(Cl)ccc2NS(=O)(=O)c2cccc3nsnc23)cc1 [SC19] | 49.1 µM | 20 to 100 µM and 49 µM | no significant inhibition | ~211 µM | no significant inhibition | completely blocked |  | 75–90% | no detectable inhibitory effect |  |  | 
3 | NC(=O)NO [HU, hydroxyurea, reference compound] |  |  |  |  |  |  |  |  |  | ~50% |  | 
4 | CC1CCc2c(sc3nc(SCc4ccc5c(c4)OCO5)nc(N)c23)C1 (centres unmarked) [SC27] | 546 µM |  |  | 193 µM |  |  |  |  |  |  | did not perform well in the FP assay | highly specific inhibition of EBNA1
5 | CC(=O)Nc1ccc(S(=O)(=O)N2c3ccccc3C(C)=CC2(C)C)cc1 [SC11] | 92.2 µM | 20 to 100 µM | no significant inhibition | 406 µM | no significant inhibition | completely blocked | ~60% | 75–90% |  |  |  | 
